{"source": "patent US5352608A", "about": "(priority 1992, dated 1994)", "key": {"[1]": {"system": "R. sphaeroides 2.4.1", "test": "Hydrogen evolution from oxyanion reduction", "assay_type": "cell-based, Rhodobacter sphaeroides"}, "[2]": {"system": "Rhodospirillum rubrum Ha", "test": "Intrinsic HLR to TeO3^2- (MIC)", "assay_type": "cell-based"}, "[3]": {"system": "R. sphaeroides PRKB^-", "test": "Intrinsic HLR to tellurite in R. sphaeroides mutants (MIC)", "assay_type": "cell-based, Rhodobacter sphaeroides", "settings": "for MIC K2 TeO3: SMM succinate", "protocol": "(§1) All Proteobacteria were grown at 30° C. with the exception of E. coli which was cultured at 37° C. on a Gyrotary shaker. Cultures of R. sphaeroides and R. gelatinosus were grown in LB, YP, or SMM containing either 0.4% succinate, 0.4% malate, or 0.4% butyrate as a carbon source. Cultures of R. capsulatus were grown in RCVB minimal medium containing 0.4% malate as a carbon source; R. rubrum was grown in SMM containing 0.4% malate, and 0.1% yeast extract. R. palustris and R. viridis were grown in SMM containing 0.4% malate, 0.1% yeast extract, and 50 μg/ml each of p-aminobenzoic acid and cyanocobalamin. […] Anaerobic-dark growth of R. sphaeroides on SMM medium containing DMSO, and photoheterotrophic growth conditions have been previously reported.\n(§2) Several growth conditions were examined to determine requirements for tellurite reduction in vivo. Table 5 indicates the growth conditions tested.\n(§3) ^a MIC were determined in SMM containing succinate at 30° C.\n(§4) ^c Supplemented with 60 mM DMSO."}, "[4]": {"system": "R. sphaeroides CFXA^- B^-", "test": "Intrinsic HLR to tellurite in R. sphaeroides mutants (MIC)", "assay_type": "cell-based, Rhodobacter sphaeroides", "settings": "for MIC K2 TeO3: SMM succinate", "protocol": "as §1, §2, §3, §4"}, "[5]": {"system": "R. sphaeroides 2.4.1-Ga", "test": "Intrinsic HLR to tellurite in R. sphaeroides mutants (MIC)", "assay_type": "cell-based, Rhodobacter sphaeroides", "settings": "for MIC K2 TeO3: SMM succinate", "protocol": "as §1, §2, §3, §4"}, "[6]": {"system": "R. sphaeroides PUC705B", "test": "Intrinsic HLR to tellurite in R. sphaeroides mutants (MIC)", "assay_type": "cell-based, Rhodobacter sphaeroides", "settings": "SMM succinate", "protocol": "as §1, §2, §3, §4"}, "[7]": {"system": "R. sphaeroides PUHA1", "test": "Intrinsic HLR to tellurite in R. sphaeroides mutants (MIC)", "assay_type": "cell-based, Rhodobacter sphaeroides", "settings": "for MIC K2 TeO3: SMM succinate", "protocol": "as §1, §2, §3, §4"}, "[8]": {"system": "Rhodopseudomonas viridis F", "test": "Intrinsic HLR to TeO3^2- (MIC)", "assay_type": "cell-based"}, "[9]": {"system": "tellurite reductase activity, R. sphaeroides BC17", "test": "TeO3^2- -dependent FADH2 oxidation in subcellular fractions", "assay_type": "biochemical, Rhodobacter sphaeroides", "settings": "for FADH2 oxidation: 100 μg/ml K2 TeO3"}}}
{"smiles": "O=[Te]([O-])[O-].[K+].[K+]", "note": "[K2 TeO3]", "values": [{"measurement": "Gas evolved", "setting": "[1]; 1 atm, 303° K., major component H2", "value": 8.37, "unit": "mmol"}, {"measurement": "Water displaced from the gas collection vessel", "setting": "[1]; culture grown in presence of TeO3^2-", "value": 208, "unit": "mL"}, {"measurement": "H2 evolved per mmole of Te^o deposited", "setting": "[1]; per mmole Te^o", "value": "approximately 11.5 mmoles"}, {"measurement": "Resistance to tellurite in words", "setting": "[2]", "value": "low resistance"}, {"measurement": "MIC K2 TeO3", "setting": "[2]; aerobic, minimal medium", "value": 20, "unit": "µg/mL"}, {"measurement": "MIC K2 TeO3", "setting": "[2]; photosynthetic, 10 W/m^2", "value": 10, "unit": "µg/mL"}, {"measurement": "MIC K2 TeO3", "setting": "[3]; aerobic", "value": 800, "unit": "µg/mL"}, {"measurement": "MIC K2 TeO3", "setting": "[3]; anaerobic-dark, 60 mM DMSO", "value": 150, "unit": "µg/mL"}, {"measurement": "MIC K2 TeO3", "setting": "[3]; photosynthetic 10 W/m^2", "value": 500, "unit": "µg/mL"}, {"measurement": "Diminution of HLR to TeO3^2-", "setting": "[3]; single mutation in prkB", "value": "10-20%"}, {"measurement": "MIC K2 TeO3", "setting": "[4]; aerobic, ( ) = resistance but no deposition of Te^0", "value": 200, "unit": "µg/mL"}, {"measurement": "MIC K2 TeO3", "setting": "[4]; anaerobic-dark, 60 mM DMSO", "value": "< 10", "unit": "µg/mL"}, {"measurement": "Concentration to which strain is resistant", "setting": "[4]; aerobic", "value": "< 200", "unit": "µg/mL"}, {"measurement": "MIC K2 TeO3", "setting": "[5]; aerobic", "value": 600, "unit": "µg/mL"}, {"measurement": "MIC K2 TeO3", "setting": "[5]; anaerobic-dark, 60 mM DMSO", "value": 100, "unit": "µg/mL"}, {"measurement": "MIC K2 TeO3", "setting": "[5]; photosynthetic 10 W/m^2", "value": 450, "unit": "µg/mL"}, {"measurement": "Increase in TeO3^2- sensitivity", "setting": "[5]; vs wild-type", "value": 20, "unit": "%"}, {"measurement": "MIC K2 TeO3", "setting": "[6]; aerobic", "value": 850, "unit": "µg/mL"}, {"measurement": "MIC K2 TeO3", "setting": "[6]; anaerobic-dark, 60 mM DMSO", "value": 150, "unit": "µg/mL"}, {"measurement": "MIC K2 TeO3", "setting": "[6]; photosynthetic 10 W/m^2", "value": 500, "unit": "µg/mL"}, {"measurement": "MIC K2 TeO3", "setting": "[7]; aerobic", "value": "< 10", "unit": "µg/mL"}, {"measurement": "MIC K2 TeO3", "setting": "[7]; anaerobic-dark, 60 mM DMSO", "value": "< 10", "unit": "µg/mL"}, {"measurement": "Concentration to which strain is sensitive", "setting": "[7]; all growth conditions", "value": 10, "unit": "µg/mL"}, {"measurement": "MIC K2 TeO3", "setting": "[8]; aerobic, minimal medium", "value": 80, "unit": "µg/mL"}, {"measurement": "MIC K2 TeO3", "setting": "[8]; photosynthetic, 10 W/m^2", "value": 50, "unit": "µg/mL"}, {"measurement": "FADH2 oxidation", "setting": "[9]; cytoplasm", "value": 20, "unit": "nmol/min/mg"}, {"measurement": "TeO3^2- -dependent FADH2 oxidase activity in words", "setting": "[9]; in vitro", "value": "Neither BC17 nor PUHA1, two mutants which were previously shown to be tellurite sensitive under both aerobic and anaerobic-dark/DMSO growth conditions, expressed significant levels"}, {"measurement": "FADH2 oxidation", "setting": "[9]; membrane", "value": 51, "unit": "nmol/min/mg"}, {"measurement": "FADH2 oxidation", "setting": "[9]; periplasm", "value": 2, "unit": "nmol/min/mg"}]}
